Values joined by “and” are separate entries in the source; they are usually repeats but may differ in a detail not shown here. Equal values may be shown once. Read-outs that look alike come from different tables or passages of the source.
Legend:
BMDCs = experiment: LDH release (lytic cell death, pyroptosis) from LPS-primed BMDCs; format: cell-based, mouse; conditions: compound 50 μM; for Average (% positive control): LDH release, positive control nigericin 5 μM; for cytotoxicity at 50 µM: Mus musculus, BMDC, LPS-primed BMDCs
In short: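 LDH released into medium, detected colorimetrically, served as the pyroptosis read-out in triplicate. LPS-primed (50 ng ml^−1, 3 h) murine bone marrow-derived dendritic cells received test compounds, typically 50 μM, or nigericin (5 μM), R837 or CL097 (100 μM) for 3 hours.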

NLRP3 inflammasome = target: T1, NLRP3 inflammasome (Mus musculus, UniProt Q8R4B8); experiment: IL-1β release from LPS-primed BMDCs (ELISA) as readout of NLRP3 inflammasome activation; format: cell-based; conditions: compound 50 μM; for Average (% positive control): IL-1β release, positive control nigericin 5 μM; for Average IL-1β / IL-1β: LPS-primed BMDCs; for IL-1β: single replicates
T1 construct: endogenous in cells; host or cells: primary mouse bone marrow-derived dendritic cells (BMDCs), LPS-primed
T1 sequence (Q8R4B8 whole entry): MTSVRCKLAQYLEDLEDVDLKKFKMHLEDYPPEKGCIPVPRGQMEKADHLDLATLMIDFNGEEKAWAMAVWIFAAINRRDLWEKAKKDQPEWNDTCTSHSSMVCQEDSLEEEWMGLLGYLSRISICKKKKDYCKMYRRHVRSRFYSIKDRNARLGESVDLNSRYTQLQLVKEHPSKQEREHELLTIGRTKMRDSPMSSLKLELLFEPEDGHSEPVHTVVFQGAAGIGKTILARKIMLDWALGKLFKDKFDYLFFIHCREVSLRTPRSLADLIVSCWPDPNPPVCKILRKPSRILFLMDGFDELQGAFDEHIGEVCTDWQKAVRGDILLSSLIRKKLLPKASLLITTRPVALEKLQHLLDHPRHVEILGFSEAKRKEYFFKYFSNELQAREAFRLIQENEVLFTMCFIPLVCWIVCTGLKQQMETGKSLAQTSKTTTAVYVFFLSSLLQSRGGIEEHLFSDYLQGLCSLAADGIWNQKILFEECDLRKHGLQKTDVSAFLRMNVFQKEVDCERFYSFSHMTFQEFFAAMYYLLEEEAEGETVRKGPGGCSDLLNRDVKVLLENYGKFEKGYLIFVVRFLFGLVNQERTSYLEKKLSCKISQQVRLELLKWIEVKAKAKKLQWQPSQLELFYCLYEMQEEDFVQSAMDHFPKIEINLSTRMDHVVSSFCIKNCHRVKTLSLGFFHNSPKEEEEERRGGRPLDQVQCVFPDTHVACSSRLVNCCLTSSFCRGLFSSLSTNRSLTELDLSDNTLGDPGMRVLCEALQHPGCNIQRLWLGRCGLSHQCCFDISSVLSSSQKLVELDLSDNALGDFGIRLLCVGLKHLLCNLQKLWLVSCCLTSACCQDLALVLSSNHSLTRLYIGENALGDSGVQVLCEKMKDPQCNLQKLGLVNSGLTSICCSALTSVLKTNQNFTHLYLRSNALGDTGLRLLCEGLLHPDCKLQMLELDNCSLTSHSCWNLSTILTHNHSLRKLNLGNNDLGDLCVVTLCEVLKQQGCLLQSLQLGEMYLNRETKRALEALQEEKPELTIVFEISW
In short: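 NLRP3 inflammasome activation was read out as IL-1β released into the supernatant, measured by ELISA. Murine BMDCs were primed with LPS (50 ng ml^−1, 3 hours), then incubated with compounds for 3 hours, with each condition run in three technical replicates. Nigericin at 5 μM acted as the positive control activator, and IL-1β release was also expressed as a percentage of that control.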

[1] = read-out: Average LDH release (% of max.)
[2] = single replicates, read-out: LDH release (% of max.)

Average (% positive control) (NLRP3 inflammasome) | Average IL-1β (NLRP3 inflammasome) | SMILES | Average (% positive control) (BMDCs) | cytotoxicity at 50 µM (BMDCs; [1]) | cytotoxicity at 50 µM (BMDCs; [2]) | IL-1β (NLRP3 inflammasome)
2.451 % positive control | 0.176 ng/mL | O=C(Nc1ccccc1)Nc1cccc(NC(=O)c2ccoc2)c1 [L01.027, N-{3-[(phenylcarbamo-yl)amino]phenyl}furan-3-carboxamide] | 9.387 % positive control | 6.87% | 5.2% | 0.149 ng/mL and 0.197 ng/mL and 0.181 ng/mL
9.988 % positive control | 0.716 ng/mL | Cc1ccc(NC(=O)Nc2ccccc2)cc1NC(=O)NC1CC1 [L01.028, 3-cyclopropyl-1-{2-methyl-5-[(phenyl-carbamoyl)amino]-phenyl}urea] | 19.825 % positive control | 14.5% | 12.6% | 0.686 ng/mL and 0.757 ng/mL and 0.705 ng/mL
2.698 % positive control | 0.193 ng/mL | O=C1CN(c2ccccc2)C(=O)N1Cc1nc(-c2ccco2)no1 [L01.033, 3-{[3-(furan-2-yl)-1,2,4-oxadiazol-5-yl]methyl}-1-phenylimidazolidine-2,4-dione] | 11.108 % positive control | 8.13% | 8% | 0.197 ng/ml (2×) and 0.186 ng/ml
3.211 % positive control | 0.230 ng/mL | CS(=O)(=O)c1cc(NC(=O)Nc2ccccc2)ccc1Cl [L01.035, 3-(4-chloro-3-methane-sulfonylphenyl)-1-phenylurea] | 11.044 % positive control | 8.08% | 8.46% | 0.321 ng/mL and 0.189 ng/mL and 0.181 ng/mL
1.956 % positive control | 0.140 ng/mL | N#Cc1ccc(NC(=O)Nc2ccccc2)cc1 [L01.038, 1-(4-cyanophenyl)-3-phenylurea] | 16.337 % positive control | 12% | 12.8% | 0.166 ng/mL and 0.127 ng/mL and 0.128 ng/mL
23.826 % positive control | 1.708 ng/mL | Cc1ccc(NC(=O)Nc2ccccc2)cc1NC(=O)NC(C)C [L01.041, 3-(4-methyl-3-[(propan-2-yl)carbamoylamino}-phenyl)-1-phenylurea] | 32.832 % positive control | 24% | 24.4% | 1.508 ng/mL and 1.847 ng/mL and 1.769 ng/mL
0.826 % positive control | 0.059 ng/mL | O=C(NCc1nc(-c2cccnc2)no1)Nc1ccc([N+](=O)[O-])cc1Cl [L01.042, 1-(2-chloro-4-nitrophen-yl)-3-{[3-(pyridin-3-yl)-1,2,4-oxadiazol-5-yl]-methyl}urea] | 9.993 % positive control | 7.31% | 7.09% | 0.060 ng/mL and 0.069 ng/mL and 0.048 ng/mL
3.697 % positive control | 0.265 ng/mL | COc1ccccc1NC(=O)NCc1nc(-c2cccnc2)no1 [L01.043, 1-(2-methoxyphenyl)-3-{[3-(pyridin-3-yl)-1,2,4-oxadiazol-5-yl]methyl}-urea] | 11.039 % positive control | 8.08% | 8.07% | 0.282 ng/mL and 0.272 ng/mL and 0.242 ng/mL
1.568 % positive control | 0.112 ng/mL | O=C(Nc1ccccc1)Nc1cccc(N2CCOC2=O)c1 [L01.045, 1-[3-(2-oxo-1,3-oxazol-idin-3-yl)phenyl]-3-phenylurea] | 7.094 % positive control | 5.19% | 5.98% | 0.103 ng/mL and 0.116 ng/mL and 0.118 ng/mL
7.117 % positive control | 0.510 ng/mL | CC(C)c1ccc(NC(=O)Nc2ccccc2)cc1 [L01.047, 1-phenyl-3-[4-(propan-2-yl)phenyl]urea] | 16.514 % positive control | 12.1% | 12.1% | 0.505 ng/mL and 0.513 ng/mL and 0.512 ng/mL
4.189 % positive control | 0.300 ng/mL | O=C1CN(c2ccccc2)C(=O)N1Cc1nc(-c2ccc(Cl)cc2)no1 [L01.049, 3-{[3-(4-chlorophenyl)-1,2,4-oxadiazol-5-yl]-methyl}-1-phenylimid-azolidine-2,4-dione] | 16.093 % positive control | 11.8% | 12.6% | 0.330 ng/mL and 0.251 ng/mL and 0.319 ng/mL
0.947 % positive control | 0.068 ng/mL | COCc1cc(F)ccc1NC(=O)NC(c1nc(-c2cccnc2)no1)C(C)C (stereo not drawn) [L01.054, 1-[4-fluoro-2-(methoxy-methyl)phenyl]-3-{2-methyl-1-[3-(pyridin-3-yl)-1,2,4-oxadiazol-5-yl]propyl}urea] | 11.431 % positive control | 8.36% | 7.79% | 0.067 ng/mL and 0.062 ng/mL and 0.074 ng/mL
0.905 % positive control | 0.065 ng/mL | COc1cccc(C)c1NC(=O)NC(c1nc(-c2cccnc2)no1)C(C)C (stereo not drawn) [L01.056, 1-(2-methoxy-6-methyl-phenyl)-3-{2-methyl-1-[3-(pyridin-3-yl)-1,2,4-oxadiazol-5-yl]propyl}-urea] | 13.256 % positive control | 9.7% | 9.34% | 0.060 ng/mL and 0.073 ng/mL and 0.062 ng/mL
6.360 % positive control | 0.456 ng/mL | O=C(Nc1ccccc1)Nc1ccc(OC(F)(F)F)cc1 [L01.061, 1-phenyl-3-[4-(trifluoro-methoxy)phenyl]urea] | 19.349 % positive control | 14.2% | 15.9% | 0.508 ng/mL and 0.439 ng/mL and 0.420 ng/mL
1.141 % positive control | 0.082 ng/mL | O=C(NCc1nc(-c2cccnc2)no1)Nc1cccc2cnccc12 [L01.062, 1-(isoquinolin-5-yl)-3-{[3-(pyridin-3-yl)-1,2,4-oxadiazol-5-yl]-methyl}urea] | 18.117 % positive control | 13.3% | 13.4% | 0.084 ng/mL and 0.087 ng/mL and 0.074 ng/mL
1.014 % positive control | 0.073 ng/mL | O=C(Nc1ccccc1)Nc1ccc(NC(=O)c2ccco2)cc1 [L01.064, N-{4-[(phenylcarbamo-yl)amino]phenyl}furan-2-carboxamide] | 11.958 % positive control | 8.75% | 8.96% | 0.065 ng/mL and 0.054 ng/mL and 0.100 ng/mL
0.928 % positive control | 0.067 ng/mL | O=C(Nc1ccccc1)Nc1ccc(NC2CCOCC2)cc1 [L01.065, 1-{4-[(oxan-4-l)amino]-phenyl}-3-phenylurea] | 12.397 % positive control | 9.07% | 8.41% | 0.052 ng/mL and 0.070 ng/mL and 0.077 ng/mL
3.698 % positive control | 0.265 ng/mL | O=C(Nc1ccccc1)Nc1ccc2c(c1)CCC2 [L01.066, 3-(2,3-dihydro-1H-inden-5-yl)-1-phenyl-urea] | 19.592 % positive control | 14.3% | 15.6% | 0.346 ng/mL and 0.256 ng/mL and 0.193 ng/mL
0.942 % positive control | 0.068 ng/mL | COc1cccc(NC(=O)NCc2nc(Cc3ccccc3)no2)c1 [L01.067, 3-[(3-benzyl-1,2,4-oxadiazol-5-yl)methyl]-1-(3-methoxyphenyl)-urea] | 9.336 % positive control | 6.83% | 6.48% | 0.064 ng/mL and 0.069 ng/mL and 0.070 ng/mL
1.941 % positive control | 0.139 ng/mL | Cc1cccc(-c2noc(CN3C(=O)CN(c4ccccc4)C3=O)n2)c1 [L01.069, 3-{[3-(3-methylphenyl)-1,2,4-oxadiazol-5-yl]-methyl}-1-phenylimid-azolidine-2,4-dione] | 12.713 % positive control | 9.3% | 9.2% | 0.131 ng/mL and 0.138 ng/mL and 0.149 ng/mL

— patent US20240277658A1, “NLRP3 ACTIVATORS FOR USE IN THE TREATMENT OF INFECTIOUS DISEASES OR CANCER BY ACTIVATING NLRP3 INFLAMMASOME” (ALBERT-LUDWIGS-UNIVERSITÄT FREIBURG, priority 2020, published 2024)
